According to patent publication US20260001888A1, “PYRAZOLOPYRIMIDINE PDE9 INHIBITORS” (Merck Sharp & Dohme LLC, priority 2018, published 2026):

Target: Human PDE9 (PDE9A2) (Homo sapiens (Human), UniProt O76083)
Assay: PDE9 IMAP fluorescence polarization (FP) inhibition assay
Format: biochemical
Conditions: apparent inhibition constant; human PDE9A2, FAM-cGMP substrate 50 nM, room temperature
In short: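 N-terminal GST-tagged full-length PDE9A2 membrane prep (0.5 ng/ml final) preincubated 30 min with compound at room temperature, then 50 nM FAM-cGMP added for 60 min; IMAP binding reagent stops reaction, FP read after 1 h. Controls: known PDE9 inhibitor (100%), 1% DMSO (0%). KI from four-parameter fit.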

Chain of Human PDE9 (PDE9A2) (O76083 other isoform, or with tags, fused parts or gaps): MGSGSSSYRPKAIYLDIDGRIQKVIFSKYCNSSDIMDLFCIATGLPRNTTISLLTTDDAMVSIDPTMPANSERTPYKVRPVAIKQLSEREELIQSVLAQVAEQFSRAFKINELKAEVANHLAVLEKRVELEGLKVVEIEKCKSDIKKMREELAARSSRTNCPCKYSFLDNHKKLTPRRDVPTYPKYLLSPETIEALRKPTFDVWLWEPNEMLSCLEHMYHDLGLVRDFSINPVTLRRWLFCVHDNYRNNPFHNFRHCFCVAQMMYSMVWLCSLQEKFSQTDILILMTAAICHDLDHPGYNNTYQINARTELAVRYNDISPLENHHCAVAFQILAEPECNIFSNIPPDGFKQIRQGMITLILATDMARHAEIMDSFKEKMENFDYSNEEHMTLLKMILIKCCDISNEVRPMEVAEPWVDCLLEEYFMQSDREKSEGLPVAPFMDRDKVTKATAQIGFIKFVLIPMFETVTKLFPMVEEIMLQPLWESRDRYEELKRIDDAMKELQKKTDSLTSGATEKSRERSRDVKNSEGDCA

Row | Ki | Structure (SMILES)
1 | 14.7 nM | CCC(c1ncc(F)cn1)N(C)c1nc2c(c(C#N)nn2C(C)c2ccc(C3CC3)nc2)c(=O)[nH]1 (single isomer, unassigned) [Example 63, 1-[1-(6-cyclopropyl-3-pyridyl)ethyl]-6-[1-(5-fluoropyrimidin-2-yl)propyl-methyl-amino]-4-oxo-5H-pyrazolo[3,4-d]pyrimidine-3-carbonitrile]
2 | 0.6 nM | CCC(c1ncc(F)cn1)N(C)c1nc2c(c(C#N)nn2C(C)c2ccc(C3CC3)nc2)c(=O)[nH]1 (single isomer, unassigned) [Example 66, 1-[1-(6-cyclopropyl-3-pyridyl)ethyl]-6-[1-(5-fluoropyrimidin-2-yl)propyl-methyl-amino]-4-oxo-5H-pyrazolo[3,4-d]pyrimidine-3-carbonitrile]
3 | 1.2 nM | CC(c1ccc(C(F)(F)F)nc1)n1nc(C#N)c2c(=O)[nH]c(N(C)C(c3ncccn3)C3CCC3)nc21 (single isomer, unassigned) [Example 31, 6-[[cyclobutyl(pyrimidin-2-yl)methyl]-methyl-amino]-4-oxo-1-[1-[6-(trifluoromethyl)-3-pyridyl]ethyl]-5H-pyrazolo[3,4-a]pyrimidine-3-carbonitrile]
4 | 6.53 nM | CC(c1ccc(C(F)(F)F)nc1)n1nc(C#N)c2c(=O)[nH]c(N3CCCC3c3ncccn3)nc21 (single isomer, unassigned) [Example 54, 4-oxo-6-(2-pyrimidin-2-ylpyrrolidin-1-yl)-1-[1-[6-(trifluoromethyl)-3-pyridyl]ethyl]-5H-pyrazolo[3,4-d]pyrimidine-3-carbonitrile]
5 | 7.36 nM | CCC(c1ncc(C(F)F)cn1)N(C)c1nc2c(c(C#N)nn2C(C)c2ccc(C(F)(F)F)nc2)c(=O)[nH]1 (single isomer, unassigned) [Example 19, 6-[1-[5-(difluoromethyl)pyrimidin-2-yl]propyl-methyl-amino]-4-oxo-1-[1-[6-(trifluoromethyl)-3-pyridyl]ethyl]-5H-pyrazolo[3,4-d]pyrimidine-3-carbonitrile]
6 | 0.59 nM | CCC(c1ccc(F)cn1)N(C)c1nc2c(c(C#N)nn2C(C)c2ccc(C(F)(F)F)nc2)c(=O)[nH]1 (single isomer, unassigned) [Example 33, 6-[1-(5-fluoro-2-pyridyl)propyl-methyl-amino]-4-oxo-1-[1-[6-(trifluoromethyl)-3-pyridyl]ethyl]-5H-pyrazolo[3,4-d]pyrimidine-3-carbonitrile]
7 | 13.2 nM | C=CCCC(c1ncccn1)N(C)c1nc2c(c(C#N)nn2C(C)c2ccc(C(F)(F)F)nc2)c(=O)[nH]1 (single isomer, unassigned) [Example 42, 6-[methyl(1-pyrimidin-2-ylpent-4-enyl)amino]-4-oxo-1-[1-[6-(trifluoromethyl)-3-pyridyl]ethyl]-5H-pyrazolo[3,4-d]pyrimidine-3-carbonitrile]
8 | 11.9 nM | CCC(c1ncc(F)cn1)N(C)c1nc2c(c(C#N)nn2C(C)c2ccc(C3CC3)nc2)c(=O)[nH]1 (single isomer, unassigned) [Example 64, 1-[1-(6-cyclopropyl-3-pyridyl)ethyl]-6-[1-(5-fluoropyrimidin-2-yl)propyl-methyl-amino]-4-oxo-5H-pyrazolo[3,4-d]pyrimidine-3-carbonitrile]
9 | 39 nM | CCC(c1ncccn1)N(C)c1nc2c(c(C#N)nn2C(C)c2ccc(C(F)(F)F)nc2)c(=O)[nH]1 (single isomer, unassigned) [Example 12, 6-[methyl(1-pyrimidin-2-ylpropyl)amino]-4-oxo-1-[1-[6-(trifluoromethyl)-3-pyridyl]ethyl]-5H-pyrazolo[3,4-d]pyrimidine-3-carbonitrile]
10 | 1.05 nM | CC(c1ccc(C(F)(F)F)nc1)n1nc(C#N)c2c(=O)[nH]c(N3CCC3c3ccc(F)cc3)nc21 (single isomer, unassigned) [Example 57, 6-[2-(4-fluorophenyl)azetidin-1-yl]-4-oxo-1-[1-[6-(trifluoromethyl)-3-pyridyl]ethyl]-5H-pyrazolo[3,4-d]pyrimidine-3-carbonitrile]
11 | 15.2 nM | CC(C)C(c1ncccn1)N(C)c1nc2c(c(C#N)nn2C(C)c2ccc(C(F)(F)F)nc2)c(=O)[nH]1 (single isomer, unassigned) [Example 21, 6-[methyl-(2-methyl-1-pyrimidin-2-yl-propyl)amino]-4-oxo-1-[1-[6-(trifluoromethyl)-3-pyridyl]ethyl]-5H-pyrazolo[3,4-d]pyrimidine-3-carbonitrile]
12 | 289 nM | CC(c1ccc(C(F)(F)F)nc1)n1nc(C#N)c2c(=O)[nH]c(N3CCCC3c3ncccn3)nc21 (single isomer, unassigned) [Example 56, 4-oxo-6-(2-pyrimidin-2-ylpyrrolidin-1-yl)-1-[1-[6-(trifluoromethyl)-3-pyridyl]ethyl]-5H-pyrazolo[3,4-d]pyrimidine-3-carbonitrile]
13 | 55.1 nM | CCC(c1ncc(F)cn1)N(C)c1nc2c(c(C#N)nn2C(C)c2ccc(C(F)(F)F)nc2)c(=O)[nH]1 (single isomer, unassigned) [Example 76, 6-((1-(5-fluoropyrimidin-2-yl)propyl)(methyl)amino)-4-oxo-1-(1-(6-(trifluoromethyl)pyridin-3-yl)ethyl)-4,5-dihydro-1H-pyrazolo[3,4-d]pyrimidine-3-carbonitrile]
14 | 0.24 nM | CCC(Cc1nc2c(c(C#N)nn2C(C)c2ccc(C(F)(F)F)nc2)c(=O)[nH]1)c1ncccn1 (single isomer, unassigned) [Example 89, 4-oxo-6-(2-(pyrimidin-2-yl)butyl)-1-(1-(6-(trifluoromethyl)pyridin-3-yl)ethyl)-4,5-dihydro-1H-pyrazolo[3,4-d]pyrimidine-3-carbonitrile]
15 | 19.9 nM | CCC(c1ccc(F)cn1)N(C)c1nc2c(c(C#N)nn2C(C)c2ccc(C(F)(F)F)nc2)c(=O)[nH]1 (single isomer, unassigned) [Example 36, 6-[1-(5-fluoro-2-pyridyl)propyl-methyl-amino]-4-oxo-1-[1-[6-(trifluoromethyl)-3-pyridyl]ethyl]-5H-pyrazolo[3,4-d]pyrimidine-3-carbonitrile]
16 | 9.98 nM | CCC(c1ncccn1)N(C)c1nc2c(c(C#N)nn2C(C)c2ccc(C(F)(F)F)nc2)c(=O)[nH]1 (single isomer, unassigned) [Example 10, 6-[methyl(1-pyrimidin-2-ylpropyl)amino]-4-oxo-1-[1-[6-(trifluoromethyl)-3-pyridyl]ethyl]-5H-pyrazolo[3,4-d]pyrimidine-3-carbonitrile]
17 | 0.71 nM | CCC(c1ncc(F)cn1)N(C)c1nc2c(c(C#N)nn2C(C)c2ccc(C3CC3)cc2)c(=O)[nH]1 (single isomer, unassigned) [Example 67, 1-[1-(4-cyclopropylphenyl)ethyl]-6-[1-(5-fluoropyrimidin-2-yl)propyl-methyl-amino]-4-oxo-5H-pyrazolo[3,4-d]pyrimidine-3-carbonitrile]
18 | 0.16 nM | CCC(c1ccc(F)cn1)N(C)c1nc2c(c(C#N)nn2C(C)c2ccc(C(F)(F)F)nc2)c(=O)[nH]1 (single isomer, unassigned) [Example 34, 6-[1-(5-fluoro-2-pyridyl)propyl-methyl-amino]-4-oxo-1-[1-[6-(trifluoromethyl)-3-pyridyl]ethyl]-5H-pyrazolo[3,4-d]pyrimidine-3-carbonitrile]
19 | 0.03 nM | CCC(c1ncccn1)N(C)c1nc2c(c(C#N)nn2C(C)c2ccc(C3CC3)nc2)c(=O)[nH]1 (single isomer, unassigned) [Example 4, 1-(1-(6-Cyclopropylpyridin-3-yl)ethyl)-6-(methyl(1-(pyrimidin-2-yl)propyl)amino)-4-oxo-4,5-dihydro-1H-pyrazolo[3,4-d]pyrimidine-3-carbonitrile]
20 | 4.08 nM | CC(c1ccc(C(F)(F)F)nc1)n1nc(C#N)c2c(=O)[nH]c(N(C)C(c3ncccn3)C3CC3)nc21 (single isomer, unassigned) [Example 25, 6-[[cyclopropyl(pyrimidin-2-yl)methyl]-methyl-amino]-4-oxo-1-[1-[6-(trifluoromethyl)-3-pyridyl]ethyl]-5H-pyrazolo[3,4-d]pyrimidine-3-carbonitrile]
21 | 2.67 nM | CCC(c1ncc(F)cn1)N(C)c1nc2c(c(C#N)nn2C(C)C2CCOCC2)c(=O)[nH]1 (single isomer, unassigned) [Example 37, 6-[1-(5-fluoropyrimidin-2-yl)propyl-methyl-amino]-4-oxo-1-(1-tetrahydropyran-4-ylethyl)-5H-pyrazolo[3,4-d]pyrimidine-3-carbonitrile]
22 | 0.01 nM | CCC(c1ncc(C(F)F)cn1)N(C)c1nc2c(c(C#N)nn2C(C)c2ccc(C(F)(F)F)nc2)c(=O)[nH]1 (single isomer, unassigned) [Example 17, 6-[1-[5-(difluoromethyl)pyrimidin-2-yl]propyl-methyl-amino]-4-oxo-1-[1-[6-(trifluoromethyl)-3-pyridyl]ethyl]-5H-pyrazolo[3,4-d]pyrimidine-3-carbonitrile]
23 | 38.8 nM | C=CCCC(c1ncccn1)N(C)c1nc2c(c(C#N)nn2C(C)c2ccc(C(F)(F)F)nc2)c(=O)[nH]1 (single isomer, unassigned) [Example 43, 6-[methyl(1-pyrimidin-2-ylpent-4-enyl)amino]-4-oxo-1-[1-[6-(trifluoromethyl)-3-pyridyl]ethyl]-5H-pyrazolo[3,4-d]pyrimidine-3-carbonitrile]
24 | 5.2 nM | CCC(c1ncccn1)N(C)c1nc2c(c(C#N)nn2C(C)c2ccc(C(F)(F)F)cc2)c(=O)[nH]1 (single isomer, unassigned) [Example 13, 6-[methyl(1-pyrimidin-2-ylpropyl)amino]-4-oxo-1-[1-[4-(trifluoromethyl)phenyl]ethyl]-5H-pyrazolo[3,4-d]pyrimidine-3-carbonitrile]
25 | 0.6 nM | CC(C)C(c1ncccn1)N(C)c1nc2c(c(C#N)nn2C(C)c2ccc(C(F)(F)F)nc2)c(=O)[nH]1 (single isomer, unassigned) [Example 23, 6-[methyl-(2-methyl-1-pyrimidin-2-yl-propyl)amino]-4-oxo-1-[1-[6-(trifluoromethyl)-3-pyridyl]ethyl]-5H-pyrazolo[3,4-d]pyrimidine-3-carbonitrile]
